Reference: US7696251B2, “Method for inhibiting neuronal cell death induced by oxidative glutamate toxicity” (Incorporated National University Iwate University, priority 2007, dated 2010)
Where two headings read alike, the source gives them in different places.

Legend:
[1] = system: HT22 cells; assay: Oxidative glutamate toxicity in HT22 cells, MTT assay; type: cell-based, mouse; details: for IC50: Mus musculus, read-out: concentration of half inhibition (IC50) of oxidative glutamate toxicity
Description: (§1) DPPD and its derivatives, shown in FIG. 1, were obtained from Ouchi Shinko Chemical Industrial (Tokyo, Japan). The compounds were dissolved in dimethyl sulfoxide (DMSO). The final concentration of DMSO in the culture medium was 0.1%. TNFα, actinomycin D (AcD), XA, XO, glutamate and H2O2 were purchased from Sigma (St. Louis, Mo., USA). HT22 cells were cultured and MTT assays were performed as described previously. Experiments presented here were repeated at least 3 times with 4 samples for each determination. The data are presented as the mean ±SD (for in vitro experiments). In order to examine the neuroprotective effects of DPPD, we employed the following 4 death-inducing agents: 1) glutamate (oxidative stress, transcription-dependent), 2) TNFα (receptor-mediated apoptosis, transcription-independent), 3) H2O2 (oxidative stress, transcription-independent) and 4) XA+XO (oxidative stress, transcription-independent). In FIG. 1, squares, DPPD; circles, D1; triangles, D2. […] HT22 cells were seeded into 24-well plates at a density of 4×10^4 cells/cm^2. After a 5-hr incubation, various concentrations of the compounds were added. One hour later, 5 mM of glutamate was added to the cultures, and 20 h thereafter, the cells were subjected to the MTT assay. The values, which represent the percentage of the control MTT activity, are means ±S.D.s (n=4).
In order to determine whether the inhibition was substantially specific to cell death by oxidative glutamate toxicity, the effects of these compounds on the cell death induced by various stimuli were examined. Adverting to FIGS. 2A, 2B, 2C and 2D, 2HT22 cells were seeded into 24-well plates at a density of 4×10^4 cells/cm^2. After a 5-hr incubation, various concentrations of DPPD were added. One hour later, the cells were treated for 20 h with glutamate (A), TNFα in the presence of 0.1 μg/ml AcD (B), H2O2 (C) and XO in the presence of 0.1 mg/ml of XA (D) and then were subjected to the MTT assay. The values, which represent the percentage of the control MTT activity, are means ±S.D.s (n=4).

[2] = system: HT22 cells; assay: H2O2-induced cell death of HT22 cells, MTT assay; type: cell-based, mouse; details: 30 or 50 μM H2O2, 20 h, MTT (FIG. 2C)
Description: as §1, with “(n=4). […]” for “(n=4).”

[3] = system: PC12 cells; details: DPPD at μM concentrations; associated with decrease in intracellular ROS levels [13]; cited from earlier work
[4] = system: HT22 cells; assay: TNFα-induced cell death of HT22 cells (with AcD), MTT assay; type: cell-based, mouse; details: 0.1 or 1.0 ng/ml TNFα with 0.1 μg/ml AcD, 20 h, MTT (FIG. 2B)
Description: as §1, with “(n=4). […]” for “(n=4).”

[5] = system: HT22 cells; assay: XA+XO-induced cell death of HT22 cells, MTT assay; type: cell-based, mouse; details: 15 or 30 mU/ml XO with 0.1 mg/ml XA, 20 h, MTT (FIG. 2D)
Description: as §1, with “(n=4). […]” for “(n=4).”

[6] = HT-22, HT22 cells, 5 mM glutamate, 20 h, MTT assay

SMILES | IC50 ([1]; HT-22, 20 h) | IC50 [1, 6] | other results
CC(C)Nc1ccc(Nc2ccccc2)cc1 [D1] | 5.4 nM | – | –
Nc1ccc(Nc2ccccc2)cc1 [D2] | – | 26 nM | –
Nc1ccc(N)cc1 [D3] | 879 nM | – | –
Nc1ccccc1 [D4] | – | 94000 nM | –
c1ccc(Nc2ccc(Nc3ccccc3)cc2)cc1 [DPPD, N,N′-Diphenyl-p-phenylenediamine] | 7.7 nM | – | protection against death induced by glutamate ([1]; DPPD at 1-10 nM, 5 or 10 mM glutamate, 20 h, MTT (FIG. 2A)): almost completely blocked; protection against H2O2-induced cell death [2]: did not substantially protect; protection of PC12 cells against lipid peroxide [3]: protected; protection against TNFα-induced neuronal death [4]: substantially ineffective; protection against XA+XO-induced cell death [5]: did not substantially protect
